Source: patent publication US6310177A, “Compounds and methods for modulating tissue permeability” (Adherex Technologies, Inc., priority 2000, dated 2001)
Where a SMILES comes first, the peptide text is derived from it. Bridges are numbered along the chain shown (N, C = ends).

Assays:
[1] = system: endothelial cell permeability in vivo; test: Miles assay for vascular permeability; details: rat, 100 μl subdermal injection of 100 μg/ml peptide in PBS, Evans blue i.v. 15 min later; for dye extracted from excised injection sites (optical density of dimethylformamide extracts at 620 nm): 24 h extraction, FIG. 6 and FIG. 8; for accumulation of Evans blue at the injection sites (visual): read 15 min after dye, FIG. 5
Description: The ability of an agent to modulate cell adhesion may generally be evaluated in vivo by assessing the effect on vascular permeability utilizing the Miles assay (McClure et al., J. Pharmacological& Toxicological Methods 32:49-52, 1994). Briefly, a candidate modulating agent may be dissolved in phosphate buffered saline (PBS) at a concentration of 100 μg/ml. Adult rats may be given 100 μl subdermal injections of each peptide solution into their shaved backs, followed 15 minutes later by a single 250 μl injection of 1% Evans blue dissolved in PBS into their tail veins. The subdermal injection sites may be visually monitored for the appearance of blue dye. Once the dye appears (about 15 minutes after injection), each subdermal injection site may be excised, weighed, and placed in 1 ml dimethylformamide for 24 hours to extract the dye. The optical density of the dye extracts may then be determined at 620 nm. In general, the injection of 0.1 ml of modulating agent (at a concentration of 0.1 mg/ml) into the backs of rats causes an increase of dye accumulation at the injection sites of at least 50%, as compared to dye accumulation at sites into which PBS has been injected.
This Example illustrates a vasopermeability assay for evaluating the effects of occludin-modulating agents on endothelial cell permeability in vivo.
The ability of cyclic and linear peptides to increase vascular permeability was assessed utilizing the Miles assay (McClure et al., J. Pharmacological& Toxicological Meth. 32:49-521994). The peptides were dissolved in phosphate buffered saline (PBS) at a concentration of 100 μg/ml. Adult rats were given 100 μl subdermal injections of each peptide solution into their shaved backs, followed 15 minutes later by a single 250 μl injection of 1% Evans blue dissolved in PBS into their tail veins. The subdermal injection sites were visually monitored for the appearance of blue dye. Once the dye appeared (15 minutes after injection), each subdermal injection site was excised, weighed, and placed in 1 ml dimethylformamide for 24 hours to extract the dye. The optical density of the dye extracts was determined at 620 nm. The effects of injecting either phosphate buffered saline, phosphate buffered saline containing acetyl-QYLYHYCVVD-NH2 (SEQ ID NO:2) H-QYLYHYCVVD-NH2 (SEQ ID NO:2), or H-QYLYHYCVVD-OH (SEQ ID NO:2) into sites along the shaved back of a rat on the accumulation of Evans blue at the injection sites is shown in FIG. 5.

[2] = system: Human aortic endothelial cells (HAEC); test: Endothelial cell adhesion assay with occludin and VE-cadherin immunolocalization; assay type: cell-based; details: 1 hour
Excerpt: The effect of a modulating agent on endothelial cell adhesion may generally be evaluated using immunolocalization techniques. Human aortic endothelial cells (HAEC) may be cultured on fibronectin-coated coverslips (fibronectinmay be obtained from Sigma, St. Louis, Mo.) according to the procedures of Jaffe et al., J. Clin. Invest. 52:2745-2756, 1973. Briefly, human endothelial cells may be maintained in EGM (endothelial cell growth medium; Clonetics, San Diego, Calif.) and used for experiments at passage 4. Confluent cultures of HAEC may be exposed to either a candidate modulating agent (final concentration 100 μg/ml EGM), or EGM alone for 1 hour. The cells are then be fixed for 30 minutes at 4° C. in 95% ethanol, followed by fixation in acetone for 1 minute at 4° C. (Furuse et al., J. Cell Biol. 123:1777-1788, 1993). After fixation, the cells may be probed with either mouse anti-VE-cadherin antibodies (Hemeris, Sassenage, France; diluted 1:250 in 0.1% dried skim milk powder dissolved in PBS), or rabbit anti-occludin antibodies (Zymed, South San Francisco, Calif.; diluted 1:300 in 0.1% dried skim milk powder dissolved in PBS) for 1 hour at 37° C. The cells may then be washed with 0.1% dried skim milk powder dissolved in PBS (three washes, 5 minutes/wash), and probed with secondary antibodies (donkey anti-mouse Cy3, or donkey anti-rabbit Cy5 diluted 1:250 in 0.1% dried skim milk powder dissolved in PBS; Jackson Immunoresearch Laboratories Inc., Westgrove, Pa.) for 1 hour at 37° C. The cells may then be washed again with in 0.1% dried skim milk powder dissolved in PBS and mounted in a solution composed of 50% glycerol and 50% PBS to which phenylenediamine (Sigma, St. Louis, Mo.) has been added to a final concentration of 1 mg/ml. The sample may then be analyzed using a Bio-Rad MRC 1000 confocal microscope with Laser Sharp software version 2.1T (Bio-Rad, Hercules, Calif.). In general, 0.1 mg/ml of modulating agent results in the appearance of intercellular gaps within the monolayer cultures and a decrease of at least 50% in the surface expression of occludin and VE-cadherin, as compared to monolayer cultures that were not exposed to the modulating agent.
This Example illustrates an endothelial cell adhesion assay for evaluating the effects of occludin-modulating agents on endothelial cell adhesion.
Human aortic endothelial cells (HAEC) were cultured on fibronectin (Sigma, St. Louis, Mo.) according to the procedures of Jaffe et al., J. Clin. Invest. 52:2745-2756, 1973. Cells were maintained in EGM (endothelial cell growth medium; Clonetics, San Diego, Calif.) and used for experiments at passage 4.
HAEC were cultured on fibronectin-coated coverslips. Confluent cultures of HAEC were exposed to linear peptides (final concentration 100 μg/ml EGM), or EGM alone for 1 hour. […]

[3] = HAEC, 100 μg/ml peptide, immunofluorescence, vs untreated cells

Row | Compound | dye extracted from excised injection sites (optical density of dimethylformamide extracts at 620 nm) [1] | accumulation of Evans blue at the injection sites (visual) [1] | surface expression of VE-cadherin [2, 3] | surface expression of occludin [2, 3] | endothelial cell adhesion (retraction of cells, gaps between cells) ([2]; confluent HAEC monolayers, 100 μg/ml peptide in EGM, vs untreated cells, FIG. 4) | formation of cobblestone-like monolayers ([2]; confluent HAEC, 100 μg/ml peptide, FIG. 4B)
1 | CC(C)C[C@@H]1NC(=O)[C@@H](N)CSSC[C@@H](C(=O)O)NC(=O)[C@H](Cc2ccc(O)cc2)NC(=O)[C@H](Cc2c[nH]cn2)NC(=O)[C@H](Cc2ccc(O)cc2)NC1=O [H-CLYHYC-OH] (H-CLYHYC-OH; disulfide 1-6) | more dye was extracted | – | – | – | – | –
2 | CC(=O)N[C@H]1CSSC[C@@H](C(N)=O)NC(=O)[C@H](Cc2ccc(O)cc2)NC(=O)[C@H](Cc2c[nH]cn2)NC(=O)[C@H](Cc2ccc(O)cc2)NC(=O)[C@H](CC(C)C)NC1=O [acetyl-CLYHYC-NH2] (Ac-CLYHYC-NH2; disulfide 1-6) | more dye was extracted from the sites injected with H-CLYHYC-OH | – | – | – | – | –
3 | Ac-QYLYHYCVVD-NH2 [acetyl-QYLYHYCVVD-NH2] | more dye was extracted from the sites injected with H-QYLYHYCVVD-OH | more blue dye has accumulated at the sites where the peptide H-QYLYHYCVVD-OH | – | – | – | –
4 | H-QYLYHYCVVD-NH2 [H-QYLYHYCVVD-NH2] | more dye was extracted from the sites injected with H-QYLYHYCVVD-OH | more blue dye has accumulated at the sites where the peptide H-QYLYHYCVVD-OH | – | – | – | –
5 | H-QYLYHYCVVD-OH [H-QYLYHYCVVD-OH] | more dye was extracted | more blue dye has accumulated | greatly reduced | greatly reduced | adhesion is decreased between the cells | do not form cobblestone-like monolayers
